# Reference: patent US11078213B2, “Thienopyrimidine compound, preparation method thereof, pharmaceutical composition and application thereof” (HONGYUN BIOTECH CO., LTD., priority 2016, dated 2021)
# pIC50: −log10 of the molar value.
# Tests used:
# [1] = tested on: kinase ALK-positive lung cancer cell line H3122; test: Growth inhibitory activity on tumor cells H3122; format: cell-based
# Protocol: (§1) If the tumor cells tested were suspension cells, the assay was carried out in accordance with the method (1) above.
# (§2) If the tumor cells tested were adherent cells, cells were incubated 1000-10000 cells/well in a 96-well culture plate until adherent, and then compounds were added. Others were carried out in accordance with the method (1) above.
# NCI-H3122 xenograft = test: Nude mouse xenograft model of non-small cell lung cancer H3122 cells; format: in vivo, BALB/c (nu/nu) nude mice; conditions: 18 consecutive days
# Protocol: (§3) In this test, BALB/c (nu/nu) nude mice were used, male and female in half, 4-6 weeks old, weighing about 18±2 g, and fed in SPF level environment, strictly sterile operation. The animals to be tested were adapted to the experimental environment 1 week in advance, free access to food and water, and maintained a 12-hour circadian rhythm.
# The NCI-H3122 cells used in the test were cultured with 10% fetal bovine serum in PRMI-1640 medium, and placed in a 37° C., 5% CO2 incubator environment.
# A subcutaneous transplantation model of tumor nude mice was established by using cell inoculation method: cells in logarithmic growth phase were collected by filtration, washed with PBS after centrifugation, and resuspended as a single cell suspension with PRMI-1640 medium, 5×10^6 cells/200 μL per nude mouse. The cell suspension was injected subcutaneously in the vicinity of right anterior axillary of a nude mouse using a 1 mL syringe (No. 4.5 needle). When the tumor of tumor-bearing mice grew to a measurable size, the tumor volume was measured daily. When the tumor volume reached about 150 mm^3, the mice were randomly divided into 4 groups, 5 mice each group, and administration was started on the day of grouping. […] The administration was conducted for 18 consecutive days. Animal weight and tumor size were measured every other day during the test. The state of the mice was recorded daily. After the last administration, the mice were anesthetized with 5% chloral hydrate and killed 6 hours. The tumors were taken, weighed and photographed for recording. Tumor Volume (TV) was calculated as: TV=½×a×b^2, where a, b represent long diameter and short diameter of tumor, respectively.
# [2] = target: EML4-ALK-G1269A BaF3 cells (Homo sapiens, UniProt Q9UM73, G1269A); test: Growth inhibition of BaF3 cells stably transfected with ALK point mutation G1269A; conditions: read-out: Growth inhibitory activity IC50, EML4-ALK-G1269A
# Protocol: (§6) The cell plate with uniformly mixed compound was cultured in a cell culture incubator (37° C.; 5% CO2) for 48 h, then 20 μL of MTS reaction solution was added, uniformly mixed and incubated in the cell culture incubator (37° C.; 5% CO2) for 1-4 hr; OD values at 490 nm were measured by a microplate reader (VARIOSKAN FLASH, Thermo). Three parallels were set in each group of experiments, with 0.1% (a final concentration) DMSO as a negative control, and a medium without cells or compounds as a blank control.
# (§7) 4) IC50 calculation: The semi-inhibitory concentration of the compound acting on cell growth was calculated using GradPad Prism 5 software according to the measured cell growth inhibition rate.
# [3] = target: EML4-ALK-I1171T BaF3 cells (Homo sapiens, UniProt Q9UM73, I1171T); test: Growth inhibition of BaF3 cells stably transfected with ALK point mutation I1171T; conditions: read-out: Growth inhibitory activity IC50, EML4-ALK-I1171T
# Protocol: as §6, §7
# [4] = target: EML4-ALK-S1206Y BaF3 cells (Homo sapiens, UniProt Q9UM73, S1206Y); test: Growth inhibition of BaF3 cells stably transfected with ALK point mutation S1206Y; conditions: read-out: Growth inhibitory activity IC50, EML4-ALK-S1206Y
# Protocol: as §6, §7
# wild-type BaF3 = test: Growth inhibition of wild-type BaF3 cells (broad-spectrum toxicity); format: cell-based; conditions: Mus musculus, read-out: Growth inhibitory activity IC50, BaF3
# Protocol: as §6, §7
# [5] = target: EML4-ALK-G1202R BaF3 cells (Homo sapiens, UniProt Q9UM73, G1202R); test: Growth inhibition of BaF3 cells stably transfected with ALK point mutation G1202R; conditions: read-out: Growth inhibitory activity IC50, EML4-ALK-G1202R
# Protocol: as §6, §7
# [6] = tested on: anaplastic large cell lymphoma Karpas-299; test: Growth inhibitory activity on tumor cells Karpas-299; format: cell-based; conditions: for pIC50: Homo sapiens, Karpas-299 tumor cells
# Protocol: as §1, §2
# EML4-ALK-BaF3 = target: T1, EML4-ALK-BaF3 (Homo sapiens, UniProt Q9UM73); test: Growth inhibition of BaF3 cells stably transfected with kinase EML4-ALK (MTS); format: cell-based; conditions: compound concentration 3.3 μM, read-out: cell growth inhibition rate, EML4-ALK
# T1 construct: EML4 (echinoderm microtubule associated protein like 4, Q9HC35) fusion partner; expressed in transfected cells; host or cells: BaF3; the other entry of the earlier key: EML4 (Q9HC35, Echinoderm microtubule-associated protein-like 4)
# Protocol: (§4) The specific test method is given as follows:
# (§5) 2) Reagent: MTS reaction solution (containing 2 mg/mL of MTS [3-(4,5-dimethylthiazol-2-yl)-5-(3-carboxymethoxyphenyl)-2-(4-sulfophenyl)-2H-tetra zolium, inner Salt]; 100 µg/mL PES ([…])).
# NPM-ALK-BaF3 = target: T2, NPM-ALK-BaF3 (Homo sapiens, UniProt Q9UM73); test: Growth inhibition of BaF3 cells stably transfected with kinase NPM-ALK (MTS); format: cell-based; conditions: compound concentration 3.3 μM, read-out: cell growth inhibition rate, NPM-ALK
# T2 construct: NPM (nuclear phosphoprotein / nucleophosmin, NPM1, P06748) fusion partner; expressed in transfected cells; host or cells: BaF3; the other entry of the earlier key: NPM1 (P06748, Nucleophosmin)
# Protocol: as §4, §5
# [7] = target: T3, EML4-ALK(G1202R)-Ba/F3 xenograft (Homo sapiens, UniProt Q9UM73, G1202R); test: Nude mouse xenograft model of EML4-ALK(G1202R)-Ba/F3; format: in vivo, BALB/c (nu/nu) nude mice; conditions: 10 consecutive days
# T3 construct: EML4 (Q9HC35) fusion partner; expressed in transfected cells; host or cells: Ba/F3; the other entry of the earlier key: EML4 (Q9HC35, Echinoderm microtubule-associated protein-like 4)
# Protocol: as §3
# The EML4-ALK(G1202R)-Ba/F3 cells used in the test were cultured with 10% fetal bovine serum in PRMI-1640 medium, and placed in a 37° C., 5% CO2 incubator environment.
# A subcutaneous transplantation model of tumor nude mice was established by using cell inoculation method: cells in logarithmic growth phase were collected by filtration, washed with PBS after centrifugation, and resuspended as a single cell suspension with PRMI-1640 medium, 1×10^6 cells/200 μL per nude mouse. The cell suspension was injected subcutaneously in the vicinity of right anterior axillary of a nude mouse using a 1 mL syringe (No. 4.5 needle). When the tumor of tumor-bearing mice grew to a measurable size, the tumor volume was measured daily. When the tumor volume reached about 150 mm^3, the mice were randomly divided into 3 groups, 8 mice each group, and administration was started on the day of grouping. The administration component was IB-1 60 mg/kg (once/day), 40 mg/kg (twice/day, bid), orally administered for 10 consecutive days, and negative control group was administered an equal amount of solvent. Animal weight and tumor size were measured daily during the test. The state of the mice was recorded daily. After the last administration, the mice were anesthetized with 5% chloral hydrate and killed 6 hours. The tumors were taken, weighed and photographed for recording. Tumor Volume (TV) was calculated as: TV=½×a×b^2, where a, b represent long diameter and short diameter of tumor, respectively.
# T1 sequence (Q9UM73 1058-1620 limits assumed): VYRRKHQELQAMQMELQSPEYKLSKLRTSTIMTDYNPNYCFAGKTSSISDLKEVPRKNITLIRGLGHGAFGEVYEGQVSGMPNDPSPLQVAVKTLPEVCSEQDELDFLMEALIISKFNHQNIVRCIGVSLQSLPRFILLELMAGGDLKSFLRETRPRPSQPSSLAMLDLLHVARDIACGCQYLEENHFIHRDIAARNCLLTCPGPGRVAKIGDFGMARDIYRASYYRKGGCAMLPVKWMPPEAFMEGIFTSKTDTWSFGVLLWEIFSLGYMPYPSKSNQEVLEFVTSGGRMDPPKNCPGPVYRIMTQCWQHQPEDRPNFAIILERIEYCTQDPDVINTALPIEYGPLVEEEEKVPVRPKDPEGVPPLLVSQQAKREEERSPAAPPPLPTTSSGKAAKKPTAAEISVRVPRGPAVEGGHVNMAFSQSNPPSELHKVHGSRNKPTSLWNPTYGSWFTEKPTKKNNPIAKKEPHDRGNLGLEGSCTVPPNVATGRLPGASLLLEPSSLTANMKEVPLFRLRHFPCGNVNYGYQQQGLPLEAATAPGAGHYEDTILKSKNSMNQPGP
# T3 sequence (Q9UM73 1058-1620 G1202R limits assumed): as the sequence (Q9UM73 1058-1620 limits assumed) above, with G145R counted along it
# T2 sequence (Q9UM73 with tags, fused parts or gaps): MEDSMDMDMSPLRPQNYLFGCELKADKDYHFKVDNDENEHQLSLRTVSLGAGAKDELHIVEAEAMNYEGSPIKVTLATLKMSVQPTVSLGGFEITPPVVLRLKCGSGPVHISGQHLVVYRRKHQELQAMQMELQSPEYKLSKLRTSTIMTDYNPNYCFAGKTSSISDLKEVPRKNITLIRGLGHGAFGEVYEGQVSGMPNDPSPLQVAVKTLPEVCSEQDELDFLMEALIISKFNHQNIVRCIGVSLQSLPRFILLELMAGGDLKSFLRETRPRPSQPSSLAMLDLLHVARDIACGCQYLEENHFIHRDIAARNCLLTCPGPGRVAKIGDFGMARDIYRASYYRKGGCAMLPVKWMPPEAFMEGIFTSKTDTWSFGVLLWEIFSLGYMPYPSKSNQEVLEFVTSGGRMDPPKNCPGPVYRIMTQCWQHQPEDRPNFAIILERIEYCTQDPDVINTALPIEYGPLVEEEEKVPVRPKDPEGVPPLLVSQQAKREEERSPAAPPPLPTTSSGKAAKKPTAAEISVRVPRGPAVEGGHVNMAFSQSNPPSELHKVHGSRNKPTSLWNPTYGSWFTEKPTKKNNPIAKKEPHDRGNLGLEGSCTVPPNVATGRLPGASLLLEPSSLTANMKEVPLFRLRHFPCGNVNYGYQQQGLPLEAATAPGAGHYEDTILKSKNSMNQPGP
# Sequence of EML4-ALK-S1206Y BaF3 cells (Q9UM73 1058-1620 S1206Y limits assumed): as the sequence (Q9UM73 1058-1620 limits assumed) above, with S149Y counted along it
# Sequence of EML4-ALK-I1171T BaF3 cells (Q9UM73 1058-1620 I1171T limits assumed): as the sequence (Q9UM73 1058-1620 limits assumed) above, with I114T counted along it
# Sequence of EML4-ALK-G1202R BaF3 cells (Q9UM73 1058-1620 G1202R limits assumed): as the sequence (Q9UM73 1058-1620 limits assumed) above, with G145R counted along it
# Sequence of EML4-ALK-G1269A BaF3 cells (Q9UM73 1058-1620 G1269A limits assumed): as the sequence (Q9UM73 1058-1620 limits assumed) above, with G212A counted along it
Compound,inhibition at 3.3 µM (EML4-ALK-BaF3) [%],inhibition at 3.3 µM (NPM-ALK-BaF3) [%],further results
COc1cc2c(cc1Nc1nc(Nc3ccccc3S(=O)(=O)C(C)C)c3sccc3n1)N(C(=O)CN(C)C)CC2 [IB-1],87.3,96.7,"inhibitory activity against H3122 (in words) [1]: good inhibitory activity; pIC50 ([1]; Homo sapiens, NCI-H3122, H3122 tumor cells): 7.82; tumor growth (NCI-H3122 xenograft; 30 mg/kg (once/day) orally): significantly inhibited tumor growth; tumor growth (NCI-H3122 xenograft; 50 mg/kg (once/day) orally): significantly inhibited tumor growth; body weight during administration (NCI-H3122 xenograft; drug group): no significant changes in body weight; side effects (NCI-H3122 xenograft; drug group): no obvious side effects; pIC50 [2]: > 8.40; pIC50 [3]: > 8.40; pIC50 [4]: > 8.40; pIC50 (wild-type BaF3): 5.80; pIC50 [5]: 8.00; inhibitory activity against Karpas-299 (in words) [6]: good inhibitory activity; pIC50 [6]: > 8.40; tumor growth ([7]; 40 mg/kg (twice/day, bid) orally): significantly inhibited tumor growth; tumor growth ([7]; 60 mg/kg (once/day) orally): significantly inhibited tumor growth; body weight during administration ([7]; drug group): no significant changes in body weight; side effects ([7]; drug group): no obvious side effects"
COC(=O)c1ccccc1Nc1nc(Nc2ccc(N3CCC(O)CC3)cc2)nc2ccsc12 [IE-2],98.2,50.5,
COc1cc2c(cc1Nc1nc(Nc3ccccc3P(C)(C)=O)c3sccc3n1)N(C(=O)CN(C)C)CC2 [IK-1],> 99,86.7,
COC(=O)c1ccccc1Nc1nc(Nc2cc(C)c(C3CCN(C)CC3)cc2OC)nc2ccsc12 [IE-8],98,84.2,
CNC(=O)c1cccc(F)c1Nc1nc(Nc2cc3c(cc2OC)CCN3C(=O)CN(C)C)nc2ccsc12 [IF-1],> 99,6.16,
"C[C@@H](Oc1cc(-c2cnn(C3CCNCC3)c2)cnc1N)c1c(Cl)ccc(F)c1Cl [Crizotinib, reference compound]",,,pIC50 [6]: 7.21

# Further lines, with some results ahead:
inhibition at 3.3 µM (EML4-ALK-BaF3) [%],inhibition at 3.3 µM (NPM-ALK-BaF3) [%],Compound,further results
96.7,93.6,COC(=O)c1ccccc1Nc1nc(Nc2ccc(N3CCC(N4CCN(C)CC4)CC3)cc2)nc2ccsc12 [IE-4],
98.9,87.6,COc1cc(N2CCC(N3CCN(C)CC3)CC2)ccc1Nc1nc(Nc2ccccc2S(C)(=O)=O)c2sccc2n1 [IA-2],
82.9,94.4,COc1cc(N2CCC(N3CCN(C)CC3)CC2)ccc1Nc1nc(Nc2ccccc2S(=O)(=O)C(C)C)c2sccc2n1 [IB-2],
99.6,86,COc1cc(N2CCN(C)CC2)ccc1Nc1nc(Nc2ccccc2S(C)(=O)=O)c2sccc2n1 [IA-4],
30.9,6.73,COC(=O)c1ccccc1Sc1nc(Nc2ccc(S(N)(=O)=O)cc2)nc2ccsc12 [IN-5],
> 99,70,COC(=O)c1ccccc1Sc1nc(Nc2cc(C)c(C3CCN(C)CC3)cc2OC)nc2ccsc12 [IN-7],
97,69.5,COC(=O)c1ccccc1Nc1nc(Nc2ccc(N3CCC(N4CCN(C)CC4)CC3)cc2OC)nc2ccsc12 [IE-1],
